Target: T1, urease (from jack beans) (Canavalia ensiformis, UniProt P07374)
T1 construct: urease (from jack beans); lyophilized 5 U/mg for urea assay in serum; purchased Merck KGaA, Germany; host or cells: jack beans (natural source)
Assay: odor-preventing effect: ammonia release from urea/urease solution, read with a diffusion tube
Assay type: biochemical
Conditions: 2 g composition, 30 mg urease, 50 ml 0.9% NaCl with 8.56 g/l urea, 23° C.
Experimental: 100 g lots of water-absorbing polymer from Example 1 were mixed in a tumble mixer with different amounts of N-cyclohexylthiophosphoramide, N-(n-butyl)thiophosphoramide or N-(n-propyl)thiophosphoramide, for 20 minutes each.
To determine the odor-preventing effect, 2 g of each of the compositions produced above were placed in a 100 ml Erlenmeyer flask and admixed with a freshly prepared solution of 30 mg of urease (from jack beans; lyophilized 5 U/mg for urea assay in serum; Merck KGaA, Germany) and 50 ml of 0.9% sodium chloride solution, the sodium chloride solution containing 8.56 g/l of urea, and sealed with a stopper having an internal diffusion tublet (Drager® Röhrchen; ammonia 20/a-D, 20 to 1500 ppm*h). The measured value was read off every 30 minutes. The measurement was discontinued after 6 hours. The test was carried out at 23° C.

[1] = 0.01 % by weight substituted thiophosphoramide in composition with water-absorbing polymer
[2] = 0.05 % by weight substituted thiophosphoramide in composition with water-absorbing polymer
[3] = 0.15 % by weight substituted thiophosphoramide in composition with water-absorbing polymer
[4] = 0.25 % by weight substituted thiophosphoramide in composition with water-absorbing polymer
[5] = 0.35 % by weight substituted thiophosphoramide in composition with water-absorbing polymer
[6] = 0.50 % by weight substituted thiophosphoramide in composition with water-absorbing polymer
[7] = 1.50 % by weight substituted thiophosphoramide in composition with water-absorbing polymer

T1 sequence (P07374 whole entry, looked up): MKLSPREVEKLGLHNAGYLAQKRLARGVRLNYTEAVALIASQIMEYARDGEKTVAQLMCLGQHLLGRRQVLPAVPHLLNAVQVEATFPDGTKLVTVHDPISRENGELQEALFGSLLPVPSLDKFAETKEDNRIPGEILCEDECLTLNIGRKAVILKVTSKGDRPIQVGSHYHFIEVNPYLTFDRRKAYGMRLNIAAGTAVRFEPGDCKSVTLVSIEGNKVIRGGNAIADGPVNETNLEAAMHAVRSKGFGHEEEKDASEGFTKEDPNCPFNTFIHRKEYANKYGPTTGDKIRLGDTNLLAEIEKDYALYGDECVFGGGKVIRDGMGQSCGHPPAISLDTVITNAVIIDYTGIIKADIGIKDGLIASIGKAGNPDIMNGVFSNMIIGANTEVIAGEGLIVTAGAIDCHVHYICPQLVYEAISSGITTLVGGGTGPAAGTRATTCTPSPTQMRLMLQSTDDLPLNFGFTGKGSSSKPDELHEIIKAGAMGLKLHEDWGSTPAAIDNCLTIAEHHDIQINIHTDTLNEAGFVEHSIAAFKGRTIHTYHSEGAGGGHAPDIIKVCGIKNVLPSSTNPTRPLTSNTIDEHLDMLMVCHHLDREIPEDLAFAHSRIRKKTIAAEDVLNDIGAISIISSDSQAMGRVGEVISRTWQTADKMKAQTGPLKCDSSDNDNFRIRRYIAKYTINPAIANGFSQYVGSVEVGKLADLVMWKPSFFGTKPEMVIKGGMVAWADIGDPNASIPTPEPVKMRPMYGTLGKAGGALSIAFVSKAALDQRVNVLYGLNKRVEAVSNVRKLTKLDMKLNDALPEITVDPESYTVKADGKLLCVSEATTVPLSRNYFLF

NP(N)(=S)NC1CCCCC1 [R = cyclohexyl, N-cyclohexylthiophosphoramide, reference compound]
ammonia after 6 hours [1]: − (more than 50 ppm of ammonia after 6 hours)
ammonia after 6 hours [2]: − (more than 50 ppm of ammonia after 6 hours)
ammonia after 6 hours [3]: − (more than 50 ppm of ammonia after 6 hours)
ammonia after 6 hours [4]: − (more than 50 ppm of ammonia after 6 hours)
ammonia after 6 hours [5]: + (less than 50 ppm of ammonia after 6 hours)
ammonia after 6 hours [6]: + (less than 50 ppm of ammonia after 6 hours)
ammonia after 6 hours [7]: + (less than 50 ppm of ammonia after 6 hours)

CCCCNP(N)(N)=S [R = n-butyl, N-(n-butyl)thiophosphoramide]
ammonia after 6 hours [1]: + (less than 50 ppm of ammonia after 6 hours)
ammonia after 6 hours [2]: + (less than 50 ppm of ammonia after 6 hours)
ammonia after 6 hours [3]: + (less than 50 ppm of ammonia after 6 hours)
ammonia after 6 hours [4]: + (less than 50 ppm of ammonia after 6 hours)
ammonia after 6 hours [5]: + (less than 50 ppm of ammonia after 6 hours)
ammonia after 6 hours [6]: + (less than 50 ppm of ammonia after 6 hours)
ammonia after 6 hours [7]: + (less than 50 ppm of ammonia after 6 hours)

CCCNP(N)(N)=S [R = n-propyl, N-(n-propyl)thiophosphoramide]
ammonia after 6 hours [1]: + (less than 50 ppm of ammonia after 6 hours)
ammonia after 6 hours [2]: + (less than 50 ppm of ammonia after 6 hours)
ammonia after 6 hours [3]: + (less than 50 ppm of ammonia after 6 hours)
ammonia after 6 hours [4]: + (less than 50 ppm of ammonia after 6 hours)
ammonia after 6 hours [5]: + (less than 50 ppm of ammonia after 6 hours)
ammonia after 6 hours [6]: + (less than 50 ppm of ammonia after 6 hours)
ammonia after 6 hours [7]: + (less than 50 ppm of ammonia after 6 hours)
